Patent US20170119742A1, “MEDICAMENT FOR PREVENTING AND/OR TREATING STRESS DISEASES” (ONO PHARMACEUTICAL CO., LTD., priority 2014, published 2017)

Assays:
[1] = system: brain TSPO; experiment: Brain occupancy using PET in monkeys, [11C] PBR28; assay type: in vivo; conditions: rhesus monkey PET, [11C] PBR28, oral
Experimental: Male rhesus monkeys (Hamri Co., Ltd., at the time of use: 5 to 8 kg) were used. The vehicle (0.5 w/v % methylcellulose 400 cP solution) or the compound of the present invention (0.3 to 30 mg/kg) was once orally administered to 3 rhesus monkeys. After 2 hours of the administration, a PET measurement using [^11C] PBR28 was performed in the following manner.
Measurement equipment: PET camera; SHR-7700 (Hamamatsu Photonics K.K.) Image reconstruction: SHR Control II program (Hamamatsu Photonics K.K.) Change over time in brain radioactivity concentration and calculation of distribution volume: PMOD programs (PMOD Technologies Ltd.) Measurement methods: 120 minutes blank measurement and 30 minutes transmission measurement were performed using 68Ge/68Ga calibration source. Next, [^11C] […]
The compound of the present invention (0.3 to 10 mg/kg) was orally administered twice daily for 3 days, once on day 4 to 3 rhesus monkeys. […] Brain TSPO occupancy relative to the distribution volume of the vehicle control group was calculated by calculating the distribution volume of the interest area (cerebellum, hippocampus, striatum, thalamus, occipital lobe, temporal lobe, frontal lobe and parietal lobe) from the brain radioactivity concentration time change of [^11C] PBR28 and arterial blood plasma radioactivity which was corrected in a non-metabolic rate.

[2] = molecular target: T1, brain TSPO (Homo sapiens, UniProt P30536); experiment: Prediction of brain TSPO occupancy in steady state, once daily in humans (Biological example 9); conditions: trough concentration
T1 construct: from tissue; host or cells: living human brain (PET, healthy adults)
T1 sequence (P30536 whole entry): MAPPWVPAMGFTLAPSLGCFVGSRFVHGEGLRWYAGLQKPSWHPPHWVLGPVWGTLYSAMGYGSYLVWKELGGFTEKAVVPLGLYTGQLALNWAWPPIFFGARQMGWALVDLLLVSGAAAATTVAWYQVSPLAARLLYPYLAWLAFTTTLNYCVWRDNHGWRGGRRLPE
Text: A transition in the plasma concentration of the compound of the present invention, in a steady state when administered once daily, was predicted.

[3] = system: olfactory bulb isolated rats; experiment: Antidepressant effect: excessive emotional reactivity in olfactory bulb isolated rats; assay type: in vivo; conditions: rat, 0.3, 1 and 3 mg/kg oral once daily, before and after administration on day 7, p<0.01 Steel test
Text: Male Crlj: WI rats (Charles River Laboratories Japan, Inc., at the time of surgery: 11 weeks old) were used to prepare an olfactory bulb isolated rat in accordance with Yamaguchi et al. method (Journal of the Pharmaceutical Society of Japan, Vol. 130, p. 175-183, 2007). The head of the anesthetized rat with pentobarbital sodium was fixed to brain stereotaxic apparatus (ASI Instruments Inc., NARISHIGE). After incising the scalp, holes to the left and right olfactory bulb region of the skull (7 mm forward and 1.8 mm laterally from bregma) were made with a dental drill. After aspirating and removing the left and right olfactory bulb by an aspirator coupled to an oral sonde which except for the tip, scalp was sutured. […] After 14 days of surgery, the excessive emotional reactivity was evaluated in accordance with the method of Gomita et al. (Journal of the Pharmaceutical Society of Japan, Vol. 82, p. 267-292, 1983). […]
A vehicle (physiological saline solution containing 0.5% Tween 80) or the compound of the present invention (0.3, 1 or 3 mg/kg) was orally administered to the olfactory bulb isolated rat repeatedly once daily for 8 days. […] On day 7, the excessive emotional reactivity was evaluated before and 1 hour after the administration.

TSPO Occupancy (%) Predicted 5 percentile ([2]; dose 5 mg): 42.8% | TSPO Occupancy (%) Predicted 95 percentile ([2]; dose 5 mg): 70.3% | TSPO Occupancy (%) Predicted median ([2]; dose 5 mg): 57.4% | TSPO Occupancy (%) Predicted 5 percentile ([2]; dose 10 mg): 59.8% | TSPO Occupancy (%) Predicted 95 percentile ([2]; dose 10 mg): 82.3% | TSPO Occupancy (%) Predicted median ([2]; dose 10 mg): 73.1% | TSPO Occupancy (%) Predicted 5 percentile ([2]; dose 20 mg): 74.6% | TSPO Occupancy (%) Predicted 95 percentile ([2]; dose 20 mg): 90.5% | TSPO Occupancy (%) Predicted median ([2]; dose 20 mg): 84.4% | TSPO Occupancy (%) Predicted 5 percentile ([2]; dose 30 mg): 81.6% | TSPO Occupancy (%) Predicted 95 percentile ([2]; dose 30 mg): 93.4% | TSPO Occupancy (%) Predicted median ([2]; dose 30 mg): 89.0% | TSPO Occupancy (%) Predicted 5 percentile ([2]; dose 60 mg): 90.0% | TSPO Occupancy (%) Predicted 95 percentile ([2]; dose 60 mg): 96.7% | TSPO Occupancy (%) Predicted median ([2]; dose 60 mg): 94.2% | TSPO Occupancy (%) Predicted 5 percentile ([2]; dose 100 mg): 95.3% | TSPO Occupancy (%) Predicted 95 percentile ([2]; dose 100 mg): 98.4% | TSPO Occupancy (%) Predicted median ([2]; dose 100 mg): 97.4%
Structure (SMILES): COc1cc(Cl)ccc1[C@H]1c2[nH]c3cccc(F)c3c2C2(CC2)CN1C(C)=O [the compound of the present invention, (1S)-2-acetyl-1-(4-chloro-2-methoxyphenyl)-5-fluoro-1,2,3,9-tetrahydrospiro[β-carboline-4,1′-cyclopropane]]
plasma concentration at which brain TSPO occupancy reaches about 50% [1]: about 70 ng/mL | excessive emotional score compared with the vehicle control group [3]: significantly lower
